Experimental data from PubChem BioAssay (NCI).
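How tested: cells in 96-well plates exposed to compound for 48 hours at five concentrations. GI50 = concentration required for 50% inhibition of growth. TGI: concentration producing complete growth inhibition.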

What was measured:
Experiment in all cases: NCI tumour cell line growth inhibition, 48 h
MOLT-4 leukemia = system: MOLT-4 leukemia
OVCAR-3 ovarian = system: OVCAR-3 ovarian
SF-539 CNS = system: SF-539 CNS
HS 578T breast = system: HS 578T breast
LOX IMVI melanoma = system: LOX IMVI melanoma
CCRF-CEM leukemia = system: CCRF-CEM leukemia
SF-268 CNS = system: SF-268 CNS
SNB-19 CNS = system: SNB-19 CNS
NCI-H23 lung = system: NCI-H23 lung
SF-295 CNS = system: SF-295 CNS
TK-10 renal = system: TK-10 renal
SW-620 colon = system: SW-620 colon
UACC-62 melanoma = system: UACC-62 melanoma
SK-MEL-2 melanoma = system: SK-MEL-2 melanoma
SK-MEL-28 melanoma = system: SK-MEL-28 melanoma
COLO 205 colon = system: COLO 205 colon
IGROV1 ovarian = system: IGROV1 ovarian
A498 renal = system: A498 renal
A549 NSCLC = system: A549 NSCLC
M14 melanoma = system: M14 melanoma
786-0 renal = system: 786-0 renal
PC-3 prostate = system: PC-3 prostate
MCF7 breast = system: MCF7 breast
HOP-62 NSCLC = system: HOP-62 NSCLC
ACHN renal = system: ACHN renal
T-47D breast = system: T-47D breast
RXF 393 renal = system: RXF 393 renal
U251 CNS = system: U251 CNS
NCI-H226 lung = system: NCI-H226 lung
SK-OV-3 ovarian = system: SK-OV-3 ovarian
SK-MEL-5 melanoma = system: SK-MEL-5 melanoma
SNB-75 CNS = system: SNB-75 CNS
BT-549 breast = system: BT-549 breast
OVCAR-4 ovarian = system: OVCAR-4 ovarian
NCI-H522 lung = system: NCI-H522 lung
MDA-MB-435 = system: MDA-MB-435
MALME-3M melanoma = system: MALME-3M melanoma
HCT-116 colon = system: HCT-116 colon
RPMI-8226 leukemia = system: RPMI-8226 leukemia
SN12C renal = system: SN12C renal
NCI-H460 lung = system: NCI-H460 lung
SR leukemia = system: SR leukemia
K-562 leukemia = system: K-562 leukemia
HCT-15 colon = system: HCT-15 colon
OVCAR-8 ovarian = system: OVCAR-8 ovarian
HT29 colon = system: HT29 colon
UACC-257 melanoma = system: UACC-257 melanoma
CAKI-1 renal = system: CAKI-1 renal
HL-60(TB) leukemia = system: HL-60(TB) leukemia
KM12 colon = system: KM12 colon
NCI/ADR-RES ovarian = system: NCI/ADR-RES ovarian
HOP-92 NSCLC = system: HOP-92 NSCLC
EKVX NSCLC = system: EKVX NSCLC
MDA-MB-231 breast = system: MDA-MB-231 breast
DU-145 prostate = system: DU-145 prostate
HCC-2998 colon = system: HCC-2998 colon
OVCAR-5 ovarian = system: OVCAR-5 ovarian
UO-31 renal = system: UO-31 renal

CC1CC[C@@]2(OC1)OC1C[C@H]3[C@@H]4CC=C5CC(OC6OC(CO)C(OC7OC(CO)C(O)C(OC8OCC(O)C(O)C8O)C7OC7OC(CO)C(O)C(O)C7O)C(O)C6O)CCC5(C)[C@H]4CCC3(C)C1[C@@H]2C (stereo partly specified)
TGI (MOLT-4 leukemia): 19.8 µM
TGI (OVCAR-3 ovarian): 9.25 µM
TGI (SF-539 CNS): 7.37 µM
TGI (HS 578T breast): 9.57 µM
TGI (LOX IMVI melanoma): 8.53 µM
TGI (CCRF-CEM leukemia): 12.1 µM
TGI (SF-268 CNS): 9.45 µM
TGI (SNB-19 CNS): > 25 µM
TGI (NCI-H23 lung): 11.7 µM
TGI (SF-295 CNS): 21.2 µM
TGI (TK-10 renal): 20.2 µM
TGI (SW-620 colon): 8.3 µM
TGI (UACC-62 melanoma): > 25 µM
TGI (SK-MEL-2 melanoma): > 25 µM
TGI (SK-MEL-28 melanoma): > 25 µM
TGI (COLO 205 colon): 8.16 µM
TGI (IGROV1 ovarian): 8.06 µM
TGI (A498 renal): 9.19 µM
TGI (A549 NSCLC): 8.01 µM
TGI (M14 melanoma): 17.1 µM
TGI (786-0 renal): 19.4 µM
TGI (PC-3 prostate): 7.45 µM
TGI (MCF7 breast): 14.6 µM
TGI (HOP-62 NSCLC): 9.32 µM
TGI (ACHN renal): 10.6 µM
TGI (T-47D breast): 11.9 µM
TGI (RXF 393 renal): 9.43 µM
TGI (U251 CNS): 8.72 µM
TGI (NCI-H226 lung): > 25 µM
TGI (SK-OV-3 ovarian): 20.7 µM
TGI (SK-MEL-5 melanoma): 8.43 µM
TGI (SNB-75 CNS): 13.7 µM
TGI (BT-549 breast): 9.24 µM
TGI (OVCAR-4 ovarian): 17.4 µM
TGI (NCI-H522 lung): 9.69 µM
TGI (MDA-MB-435): 13.4 µM
TGI (MALME-3M melanoma): > 25 µM
TGI (HCT-116 colon): 8.14 µM
TGI (RPMI-8226 leukemia): 18.4 µM
TGI (SN12C renal): 8.27 µM
TGI (NCI-H460 lung): 11.8 µM
TGI (SR leukemia): 17.7 µM
TGI (K-562 leukemia): 17.7 µM
TGI (HCT-15 colon): > 25 µM
TGI (OVCAR-8 ovarian): 8.95 µM
TGI (HT29 colon): 9.4 µM
TGI (UACC-257 melanoma): 18 µM
TGI (CAKI-1 renal): 10.3 µM
TGI (HL-60(TB) leukemia): 9.35 µM
TGI (KM12 colon): 10.5 µM
TGI (NCI/ADR-RES ovarian): 12.9 µM
TGI (HOP-92 NSCLC): > 25 µM
TGI (EKVX NSCLC): 9.01 µM
TGI (MDA-MB-231 breast): 9.29 µM
TGI (DU-145 prostate): 9.48 µM
TGI (HCC-2998 colon): 8.63 µM
TGI (OVCAR-5 ovarian): > 25 µM

CC1OC(n2c3ccccc3c3c4c(c5c6ccccc6[nH]c5c32)C(=O)N(CCN[C@@H]2CCC[C@H]2N)C4=O)CC(O)C1O (stereo partly specified)
GI50 (MOLT-4 leukemia): 0.747 µM
TGI (MOLT-4 leukemia): 4.74 µM
GI50 (OVCAR-3 ovarian): 1.71 µM
TGI (OVCAR-3 ovarian): 6.82 µM
GI50 (HS 578T breast): 1.63 µM
TGI (HS 578T breast): 9.73 µM
GI50 (LOX IMVI melanoma): 0.835 µM
TGI (LOX IMVI melanoma): 2.68 µM
GI50 (CCRF-CEM leukemia): 1.25 µM
TGI (CCRF-CEM leukemia): 6.27 µM
GI50 (SF-268 CNS): 1.48 µM
TGI (SF-268 CNS): 8.06 µM
GI50 (SNB-19 CNS): 1.39 µM
TGI (SNB-19 CNS): 6.58 µM
GI50 (NCI-H23 lung): 1.7 µM
TGI (NCI-H23 lung): 7.6 µM
GI50 (SF-295 CNS): 1.74 µM
TGI (SF-295 CNS): 7.04 µM
GI50 (TK-10 renal): 2.98 µM
TGI (TK-10 renal): 11 µM
GI50 (SW-620 colon): 1.05 µM
TGI (SW-620 colon): 5.71 µM
GI50 (UACC-62 melanoma): 0.872 µM
TGI (UACC-62 melanoma): 2.8 µM
GI50 (SK-MEL-2 melanoma): 3.68 µM
TGI (SK-MEL-2 melanoma): 11.8 µM
GI50 (SK-MEL-28 melanoma): 2.65 µM
TGI (SK-MEL-28 melanoma): 9.59 µM
GI50 (COLO 205 colon): 1.01 µM
TGI (COLO 205 colon): 4.19 µM
GI50 (IGROV1 ovarian): 1.87 µM
TGI (IGROV1 ovarian): 9.68 µM
GI50 (A498 renal): 1.93 µM
TGI (A498 renal): 8.24 µM
GI50 (A549 NSCLC): 2.48 µM
TGI (A549 NSCLC): 9.17 µM
GI50 (M14 melanoma): 1.63 µM
TGI (M14 melanoma): 7.14 µM
GI50 (786-0 renal): 2.35 µM
TGI (786-0 renal): 9.9 µM
GI50 (PC-3 prostate): 1.55 µM
TGI (PC-3 prostate): 6.13 µM
GI50 (MCF7 breast): 0.768 µM
TGI (MCF7 breast): 2.05 µM
GI50 (HOP-62 NSCLC): 1.74 µM
TGI (HOP-62 NSCLC): 7.24 µM
GI50 (ACHN renal): 2.97 µM
TGI (ACHN renal): 10.5 µM
GI50 (T-47D breast): 1.04 µM
TGI (T-47D breast): 6.46 µM
GI50 (RXF 393 renal): 1.68 µM
TGI (RXF 393 renal): 7.45 µM
GI50 (U251 CNS): 1.05 µM
TGI (U251 CNS): 5.74 µM
GI50 (NCI-H226 lung): 1.79 µM
TGI (NCI-H226 lung): 8.82 µM
GI50 (SK-OV-3 ovarian): 2.51 µM
TGI (SK-OV-3 ovarian): 9.09 µM
GI50 (SK-MEL-5 melanoma): 1.22 µM
TGI (SK-MEL-5 melanoma): 3.68 µM
GI50 (SNB-75 CNS): 0.918 µM
TGI (SNB-75 CNS): 5.68 µM
GI50 (BT-549 breast): 1.74 µM
TGI (BT-549 breast): 8.85 µM
GI50 (OVCAR-4 ovarian): 1.72 µM
TGI (OVCAR-4 ovarian): 7.06 µM
GI50 (NCI-H522 lung): 0.962 µM
TGI (NCI-H522 lung): 5.26 µM
GI50 (MDA-MB-435): 1.44 µM
TGI (MDA-MB-435): 6.46 µM
GI50 (MALME-3M melanoma): 2.06 µM
TGI (MALME-3M melanoma): 9.07 µM
GI50 (HCT-116 colon): 1.32 µM
TGI (HCT-116 colon): 5.54 µM
GI50 (RPMI-8226 leukemia): 1.14 µM
TGI (RPMI-8226 leukemia): 2.89 µM
GI50 (SN12C renal): 1.48 µM
TGI (SN12C renal): 6.5 µM
GI50 (NCI-H460 lung): 0.744 µM
TGI (NCI-H460 lung): 1.57 µM
GI50 (SR leukemia): 0.439 µM
TGI (SR leukemia): 3.94 µM
GI50 (K-562 leukemia): 0.85 µM
TGI (K-562 leukemia): 2.76 µM
GI50 (HCT-15 colon): 5.88 µM
TGI (HCT-15 colon): 12.6 µM
GI50 (OVCAR-8 ovarian): 1.93 µM
TGI (OVCAR-8 ovarian): 9.11 µM
GI50 (HT29 colon): 1.33 µM
TGI (HT29 colon): 5.46 µM
GI50 (UACC-257 melanoma): 3.73 µM
TGI (UACC-257 melanoma): 10.5 µM
GI50 (CAKI-1 renal): 6.24 µM
TGI (CAKI-1 renal): 12.9 µM
GI50 (HL-60(TB) leukemia): 1.26 µM
TGI (HL-60(TB) leukemia): 8.23 µM
GI50 (KM12 colon): 1.35 µM
TGI (KM12 colon): 6.11 µM
GI50 (NCI/ADR-RES ovarian): > 50 µM
TGI (NCI/ADR-RES ovarian): > 50 µM
GI50 (HOP-92 NSCLC): 2.31 µM
TGI (HOP-92 NSCLC): 9.06 µM
GI50 (EKVX NSCLC): 1.8 µM
TGI (EKVX NSCLC): 8.35 µM
GI50 (MDA-MB-231 breast): 1.88 µM
TGI (MDA-MB-231 breast): 8.16 µM
GI50 (DU-145 prostate): 2.22 µM
TGI (DU-145 prostate): 8.31 µM
GI50 (HCC-2998 colon): 3.23 µM
TGI (HCC-2998 colon): 11.4 µM
GI50 (OVCAR-5 ovarian): 3.66 µM
TGI (OVCAR-5 ovarian): 11.6 µM
GI50 (UO-31 renal): 6.45 µM
TGI (UO-31 renal): 15 µM
